Patent US20200325505A1, “FILAMENTOUS FUNGI CAPABLE OF PRODUCING VERY LONG CHAIN FATTY ACIDS” (UT-Battelle, LLC, priority 2019, published 2020)
Read-outs that look alike come from different tables or passages of the source.

Test system: Mortierella elongata AG77
Experiment: Carbon source utilisation in Biolog 96-well plates, formazan formation after tetrazolium addition
Type: cell-based
Conditions: for Metabolized: Metabolized = more formazan formation than a control containing no carbon source, observed visually at 2 h, 24 h, 148 h; for Carbon sources that Mortierella elongata AG77 can metabolize: summary of Table 3
Description: Two 300 mL volumes of growth medium comprising 1 g/L KH2PO4, 1 g/L MgSO4 7H2O, 0.1 g/L CaCl2, 0.02 g/L FeNaEDTA, 0.1 g/L NaCl, and either 1 g/L NH4NO3 or 20 g/L sucrose were prepared. Acidity was adjusted to 5.5 using NaOH and volumes of growth medium were autoclaved 30 min at 121° C. to sterilize. Aliquots of 200 μL of carbon-free medium or nitrogen-free medium were pipetted into each well of a set of 96-well plates previously prepared with lyophilized putative carbon or nitrogen sources (Biolog Inc., Hayward, Calif.). Inocula were prepared by perforating a culture of Mortierella elongata AG77 grown on 20 g/L potato dextrose agar with a 3 mm diameter cork borer and separating the surface mycelial mat from the solid growth medium using tweezers. Each well was inoculated with one inoculum. Cultures were incubated at 21° C. for 24 hours to allow metabolic changes to stabilize, and then 100 μL of 3 g/L tetrazolium chloride in water was added to each well. Formazan formation was observed visually at 2 h, 24 h, and 148 h.
Conclusions were based on rate and intensity of formazan formation using the 3-4,5-dimethylthiazol-2-yl)-2,5-diphenyltetrazolium bromide (MTT) assay. “Metabolized” indicates more formazan formation than a control containing no carbon source, and “Toxic” indicates less formazan formation than a control containing no carbon source. “Metabolized” and “Toxic” assignments are mutually exclusive. In this example, a compound may be “Metabolized” or “Toxic,” but not both.

[1] = compound as carbon source, Toxic = less formazan formation than a control containing no carbon source

Row | Compound | Metabolized (compound as carbon source) | Toxic [1] | Toxic | Carbon sources that Mortierella elongata AG77 can metabolize
1 | OC[C@@H](O)C(O)[C@H](O)CO [D-Arabitol] | no | no |  | 
2 | Chondroitin Sulfate C |  |  | no | 
3 | O=C(CO)[C@@H](O)[C@H](O)[C@H](O)CO [D-Fructose] | no |  | no | 
4 | C[C@H](O)[C@H](O)[C@@H](O)[C@@H](O)C=O [L-Rhamnose] | no | no |  | 
5 | O=C(O)[C@H](O)[C@@H](O)[C@H](O)[C@H](O)CO[C@H]1O[C@H](CO)[C@H](O)[C@H](O)[C@H]1O [Melibionic Acid] | no | no |  | 
6 | OC[C@H]1O[C@@H]2O[C@H]3[C@H](O)[C@@H](O)[C@@H](O[C@H]4[C@H](O)[C@@H](O)[C@@H](O[C@H]5[C@H](O)[C@@H](O)[C@@H](O[C@H]6[C@H](O)[C@@H](O)[C@@H](O[C@H]7[C@H](O)[C@@H](O)[C@@H](O[C@H]8[C@H](O)[C@@H](O)[C@@H](O[C@H]9[C@H](O)[C@@H](O)[C@@H](O[C@H]1[C@H](O)[C@H]2O)O[C@@H]9CO)O[C@@H]8CO)O[C@@H]7CO)O[C@@H]6CO)O[C@@H]5CO)O[C@@H]4CO)O[C@@H]3CO [γ-Cyclodextrin] | no | no |  | 
7 | OC[C@H]1O[C@@H](Oc2ccc(O)cc2)[C@H](O)[C@@H](O)[C@@H]1O [Arbutin] | no | no |  | 
8 | OC[C@@]12OC[C@@H](O1)[C@@H](O)[C@@H](O)[C@@H]2O [Sedoheptulosan] | no | no |  | 
9 | Pectin |  |  | no | 
10 | OC[C@H]1O[C@@H]2O[C@H]3[C@H](O)[C@@H](O)[C@@H](O[C@H]4[C@H](O)[C@@H](O)[C@@H](O[C@H]5[C@H](O)[C@@H](O)[C@@H](O[C@H]6[C@H](O)[C@@H](O)[C@@H](O[C@H]7[C@H](O)[C@@H](O)[C@@H](O[C@H]1[C@H](O)[C@H]2O)O[C@@H]7CO)O[C@@H]6CO)O[C@@H]5CO)O[C@@H]4CO)O[C@@H]3CO [α-Cyclodextrin] | no | no |  | 
11 | O=C(CO)[C@H](O)[C@H](O)[C@H](O)CO [D-Psicose] | yes |  | no | can metabolize
12 | O=C[C@H](O)[C@H](O)[C@H](O)CO [D-Ribose] | no |  | no | 
13 | Nc1ncnc2c1ncn2C1CC(O)C(CO)O1 (stereo not drawn) [2-Deoxy Adenosine] | no | no |  | 
14 | O=C[C@H](O)[C@@H](O)[C@H](O)CO [D-Xylose] | no |  | no | 
15 | OC[C@H]1O[C@@](CO)(O[C@H]2O[C@H](CO)[C@@H](O)[C@H](O)[C@H]2O)[C@@H](O[C@H]2O[C@H](CO)[C@@H](O)[C@H](O)[C@H]2O)[C@@H]1O [D-Melezitose] | no | no |  | 
16 | O=C(O)CCCCCCCCC(=O)O [Sebacic Acid] | no |  | no | 
17 | CC(=O)CC(=O)O [Acetoacetic Acid] | yes |  | no | can metabolize
18 | CCCCCC(=O)O [Caproic Acid] | no | no |  | 
19 | OC[C@@H](O)[C@H](O)[C@H](O)[C@@H](O)CO [Dulcitol] | no |  | no | 
20 | CO[C@@H]1O[C@H](C(=O)O)[C@@H](O)[C@H](O)[C@H]1O [β-Methyl-D-Glucuronic Acid] | no | no |  | 
21 | Gentiobiose | no |  |  | 
22 | O=C(O)c1ccccc1O [2-Hydroxy Benzoic Acid] | no |  |  | 
23 | CC(O)C(C)O (stereo not drawn) [2,3-Butanediol] | no |  | no | 
24 | N#C[C@H](O[C@@H]1O[C@H](CO[C@@H]2O[C@H](CO)[C@@H](O)[C@H](O)[C@H]2O)[C@@H](O)[C@H](O)[C@H]1O)c1ccccc1 [Amygdalin] | no | no |  | 
25 | O=C(CO)[C@@H](O)[C@@H](O)[C@H](O)CO [D-Tagatose] | no |  | no | 
